According to publication PMC11239005, “Preclinical studies of RA475, a guanidine-substituted spirocyclic candidate RPN13/ADRM1 inhibitor for treatment of ovarian cancer” (PLOS ONE, 2024):
Values joined by “and” are separate entries in the source; they are usually repeats but may differ in a detail not shown here. Equal values may be shown once.

Tests used:
[1] = system: high molecular weight polyubiquitinated proteins in SKOV3 cells; assay: Anti-ubiquitin immunoblot, SKOV3; type: cell-based; settings: Up284 and RA475 0.5 and 1 μM, RA190 1 μM
Excerpt: Cell lysate prepared in MPER (Pierce) from each sample was normalized by total protein concentration using the bicinchoninic acid assay and bovine serum albumin standards. Normalized samples were subjected to SDS-PAGE, transferred to PVDF membranes and analyzed by Western blot using antibodies specific to ubiquitin (P4D1, sc-8017, Santa Cruz), PARP (#9542, […]), actin (#66009, Protein Tech Group), Tubulin(#66031, Protein Tech Group), ADRM1/RPN13 (D9Z1U, #12019, Cell Signaling), USP14 (Cell Signal, # 8159), Annexin V (#559763, BD Pharmingen), and for secondary antibodies we utilized either horseradish peroxidase (HRP)-linked anti-mouse IgG or anti-rabbit IgG (GE Healthcare UK Ltd), HRP-linked streptavidin (N100, Thermo Fisher) at the recommended dilution (1:5000).
Accumulation of high molecular weight polyubiquitinated proteins (polyUb) is a classical phenomenon of proteasome function inhibition due to the stabilization of its substrate.
Fig 3 Impact of RA475 on proteasome function. […] Actin was used as loading control. […] C) 4T1 and HCC1806 cells stably expressing 4UbFL were treated with compounds at indicated doses for 4 h and imaged by IVIS200 after the addition of luciferin substrate (50 μL, 7mg/mL in PBS). […] After a 4 h incubation, the cells were lysed and the luciferase activity in each cell lysate was determined with a luciferase assay kit (Promega) according to the manufacturer’s instructions. Bioluminescence was measured by using a luminometer (Glomax Multidetection system, Promega) E) A patch was shaved of hair on one leg of CD-1 mice, and 10 μg 4UbFL plasmid in 20 μL of PBS was injected into the quadriceps femoralis muscle followed immediately by injection of the 2 Needle Array to 5 mm depth encompassing the injection site and square wave electroporation (ElectroSquarePorator 833, BTX-2 Needle array 5mm gap, Harvard apparatus) delivered as eight pulses at 106V for 20 ms with 200 ms intervals. […] Equally sized areas were analyzed using Living Image 2.20 software. […]

[2] = system: PEO23; assay: MTT cytotoxicity assay, PEO23; type: cell-based; settings: PEO23, 72 h
Method: (§1) All cell lines were obtained from the American Type Culture Collection (ATCC) and cultured in the specified medium supplemented with 10% fetal bovine serum, 100 IU/mL penicillin, and 100 μg/mL streptomycin at 37°C in a humidified 5% CO2/95% air incubator. Synthesis of new compounds is described in S1 File, and >95% purity of RA475, Up284 and its analogs were confirmed by NMR and MS. To assess drug cytotoxicity, cells were seeded at 2,500 cells/well (10,000 cells/well for MM lines) in 100 μL medium in 96-well plate as triplicates and after 24 h treated with compounds for a further 72 h. To assess cytotoxicity, the cells were incubated for 2 h at 37°C according to the manufacturer’s protocol with the Thiazolyl Blue Tetrazolium Bromide (20 μL/well of 5 mg/mL stock solution in water) (Sigma, M5655) and A570 measured using a Benchmark Plus microplate spectrophotometer (BIO-RAD). IC50 was estimated using Graphpad Prism 7 software.

[3] = system: HFF; assay: MTT cytotoxicity assay, HFF; type: cell-based; settings: Homo sapiens, HFF (normal cells), 72 h
Method: as §1

[4] = Single increasing dose tolerability in CD-1 mice, IP; type: in vivo, mouse; settings: CD-1, mouse, in vivo; mice, single dose, IP
Method: (§2) RA475 in 25% β-hydroxy propyl cyclodextrin in water was administered at increasing single doses to CD-1 mice (n = 3/group) via intraperitoneal injection.

[5] = system: CD-1 mice; assay: as above; type: in vivo, mouse; settings: CD-1 mice, single IP doses at or below 80 mg/Kg
Method: as §2

[6] = LogD measurement, shake-flask octanol/PBS pH 7.4; type: physicochemical; settings: for D: octanol/PBS pH 7.4, single injections 1-3; for LogD, pH 7.4: single injections 1-3
Method: Incubations were carried out in Eppendorf-type polypropylene microtubes in triplicates. A 2.5 μL aliquot of 20 mM DMSO stock of a test compound was added into the previously mutually saturated mixture containing 500 μL of PBS (pH 7.4) and 500 μL of octanol. The solution was allowed to mix in a rotator for 1 hour at 30 rpm. Phase separation was assured by centrifugation for 2 min at 6000 rpm. The octanol phase was diluted 100-fold with 40% acetonitrile, and the aqueous phase (PBS buffer) was diluted 10-fold. The samples (both phases) were analyzed using an HPLC system coupled with a tandem mass spectrometer. […] Calculations of the partition ratios were carried out using the equation below. D=do.So/dp.Sp where:
So–peak area of the analyte in octanol phase
SP–peak area of the analyte in PBS buffer
do–dilution coefficient for octanol phase

[7] = system: LaPC4; assay: MTT cytotoxicity assay, LaPC4; type: cell-based; settings: Homo sapiens, LaPC4, 72 h
Method: as §1

[8] = system: HT29; assay: MTT cytotoxicity assay, HT29; type: cell-based; settings: Homo sapiens, HT-29, HT29, 72 h
Method: as §1

| logD ([6]; n-octanol/PBS, pH 7.4, mean of three injections) | logD ([6]; n-octanol/PBS, pH 7.4, single injections 1-3) | SMILES | accumulation of high molecular weight polyubiquitinated proteins [1] | IC50 [2] [nM] | IC50 [3] [nM] | NOAEL [4] [mg/kg] | adverse events, including weight loss [5] | D [6] | logD ([6]; pH 7.4, mean of three injections) | logD ([6]; pH 7.4, single injections 1-3) | LogD, pH 7.4 [6] | IC50 [7] [nM] | IC50 [8] [nM] |
| --- | --- | --- | --- | --- | --- | --- | --- | --- | --- | --- | --- | --- | --- |
| – | – | Cl.Cl.N#Cc1ccc(/C=C2/C(=O)/C(=C/c3ccc(C#N)cc3)C23CCN(C(=N)N)CC3)cc1 [RA475, 1,3-bis((E)-4-cyanobenzylidene)-2-oxo-7-azaspiro[3.5]nonane-7-carboximidamide dihydrochloride] | robust accumulation of polyUb in dose dependent manner | 297 | > 2500 | > 80 | No evidence of adverse events | 3.84E+01 and 4.27E+01 and 3.16E+01 | 1.58 | 1.58 | 1.631 and 1.5 | 2030 | 401 |
| 2.12 | 2.06 | N#Cc1ccc(/C=C2/C(=O)/C(=C/c3ccc(C#N)cc3)C23CCNCC3)cc1 [Up284, reference compound] | robust accumulation of polyUb | 112 | > 2500 | – | – | 1.15E+02 and 1.32E+02 and 1.44E+02 | – | – | 2.158 | 510 | 43 |
